27 compounds from patent US8163756B2 (priority 2004, dated 2012) can be followed below.

Chain of B-Raf(V599E) kinase (P15056 with tags, fused parts or gaps V600E): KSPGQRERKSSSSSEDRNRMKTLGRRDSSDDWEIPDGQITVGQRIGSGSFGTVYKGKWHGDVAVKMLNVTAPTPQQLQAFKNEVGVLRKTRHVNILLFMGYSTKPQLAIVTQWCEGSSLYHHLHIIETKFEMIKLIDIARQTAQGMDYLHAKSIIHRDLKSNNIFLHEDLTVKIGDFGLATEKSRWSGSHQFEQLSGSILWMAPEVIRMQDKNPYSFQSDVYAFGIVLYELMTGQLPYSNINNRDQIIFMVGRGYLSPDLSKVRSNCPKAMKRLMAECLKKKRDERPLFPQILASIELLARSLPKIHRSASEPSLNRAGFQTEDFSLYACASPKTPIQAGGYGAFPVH

One assay has as its target B-Raf(V599E) kinase (Homo sapiens, UniProt P15056, V600E). The assay can be described thus: B-Raf(V599E) kinase assay B1 (construct 1, MEK1 substrate, coupled spectrophotometric). In kind it is biochemical.
Conditions: not given
Here is the method: The test compounds were incubated with the reaction mixtureat 30° C. for 2 h. […] The reaction rate was calculated using the […] time frame. […] IC50 values were calculated from a series of percent inhibition values determined at a range of inhibitor concentrations using software routines as implemented in the GraphPad Prism software package.
For `CC(C)(C)c1cc(NC(=O)Nc2cccc(F)c2F)n(-c2cc(CO)c3ccccc3c2)n1` [Example 294], the IC50 came out at 3.3 nM. The same measure, in the same setting: the same measure for `CC(C)(C)c1cc(NC(=O)Nc2cc(F)cc(F)c2)n(-c2ccc3c(c2)CCC(=O)N3)n1` [Example 326, 1-(3-t-butyl-1-(2-oxo-1,2,3,4-tetrahydro-quinolin-6-yl)-1H-pyrazol-5-yl)-3-(3,5-difluorophenyl)urea]: 17 nM; for `CC(C)(C)c1cc(NC(=O)NC2CCCCC2)n(-c2cccc(-c3cccnc3)c2)n1` [Example 274, 1-[5-t-butyl-2-(3-pyridin-3-yl-phenyl)-2H-pyrazol-3-yl]-3-cyclohexyl-urea]: 134 nM. Same read-out and setting: next, `CC(C)(C)c1cc(NC(=O)Nc2cccc(Cl)c2Cl)n(-c2cc(C(=O)O)c3ccccc3c2)n1` [Example 287, 3-{3-t-butyl-5-(3-(2,3-dichlorophenyl)ureido]-1H-pyrazol-1-yl}-1-naphthoic acid]: 41 nM; `CC(C)(C)c1cc(NC(=O)Nc2ccc3c(c2)OCO3)n(-c2cccc(CCN)c2)n1` [Example 253, 1-{1-[3-(2-aminoethyl)phenyl]-3-t-butyl-1 H-pyrazol-5-yl}-3-(benzo[d][1,3]dioxol-5-yl)urea]: 75 nM. Still for that read-out and setting: the same measure for `CC(C)(C)c1cc(NC(=O)Nc2cc(F)c(F)cc2F)n(-c2ccc3c(c2)CCC(=O)N3)n1` [Example 323, 1-(3-t-butyl-1-(2-oxo-1,2,3,4-tetrahydro-quinolin-6-yl)-1H-pyrazol-5-yl)-3-(2,4,5-trifluorophenyl)urea]: 3.4 nM; for `CC(C)(C)c1cc(NC(=O)Nc2cccc(F)c2)n(-c2ccc3c(c2)CCN3)n1` [Example 306, 1-(3-t-butyl-1-(indolin-5-yl)-1H-pyrazol-5-yl)-3-(3-fluorophenyl)urea]: 36 nM; for `CC(C)(C)c1cc(NC(=O)Nc2ccccc2F)n(-c2ccc3c(c2)C(=O)NCC3)n1` [Example 312, 1-(3-t-butyl-1-(1-oxo-1,2,3,4-tetrahydroiso-quinolin-7-yl)-1H-pyrazol-5-yl)-3-(2-fluorophenyl)urea]: 35 nM. The compound `CCOC(=O)c1cc(-n2nc(C(C)(C)C)cc2NC(=O)NC2CCCCC2)cc2ccccc12` [Example 288, ethyl 3-(3-t-butyl-5-(3-cyclohexylureido)-1H-pyrazol-1-yl)-1-naphthoate] displayed an IC50 of 56 nM. On to `CC(C)(C)c1cc(NC(=O)Nc2cccc(F)c2F)n(-c2ccc3[nH]c(=O)ccc3c2)n1` [Example 329, 1-(3-t-butyl-1-(2-oxo-1,2-dihydroquinolin-6-yl)-1H-pyrazol-5-yl)-3-(2,3-difluorophenyl)urea], for which the IC50 stood at 4.2 nM. As for `CC(C)(C)c1cc(NC(=O)Nc2ccc(Cl)cc2)n(-c2cc(CC(=O)O)c3ccccc3c2)n1` [Example 300, (3-{3-t-butyl-5-[3-(4-chlorophenyl)ureido]pyrazol-1-yl}naphthalen-1-yl)acetic acid], the IC50 turned out to be 9.2 nM. Still for that read-out and setting: next, `CC(C)(C)c1cc(NC(=O)Nc2ccc(Cl)cc2)n(-c2cc(CCO)c3ccccc3c2)n1` [Example 302, 1-{5-t-butyl-2-[4-(2-hydroxyethyl)naphthalen-2-yl]-2H-pyrazol-3-yl}-3-(4-chlorophenyl)urea]: 13 nM. On the same count and under the same terms, next, `CC(C)(C)c1cc(NC(=O)Nc2cccc(F)c2)n(-c2ccc3c(c2)CCNCC3)n1` [Example 335, 1-(3-t-butyl-1-(2,3,4,5-tetrahydro-1H-benzo[d]azepin-7-yl)-1 H-pyrazol-5-yl)-3-(3-fluorophenyl)urea]: 104 nM. The same measure, in the same setting: next, `COC(=O)Cc1cc(-n2nc(C(C)(C)C)cc2NC(=O)Nc2ccccc2)cc2ccccc12` [Example 299, {3-[3-t-butyl-5-(3-phenylureido)pyrazol-1-yl]naphthalen-1-yl}acetic acid methyl ester]: 20 nM; `CC(C)(C)c1cc(NC(=O)Nc2ccc(Cl)cc2)n(-c2cccc(CCN)c2)n1` [Example 255, 1-{1-[3-(2-aminoethyl)phenyl]-3-t-butyl-1H-pyrazol-5-yl}-3-(4-chlorophenyl)urea]: 86 nM; `CC(C)(C)c1cc(NC(=O)Nc2ccccc2F)n(-c2cccc(CO)c2)n1` [Example 219, 1-{3-t-butyl-1-[3-(hydroxymethyl)phenyl]-1H-pyrazol-5-yl}-3-(2-fluorophenyl)urea]: 55 nM.

Take `CC(C)(C)c1cc(NC(=O)Nc2cccc(Cl)c2Cl)n(-c2cccc(C(=O)O)c2)n1` [Example 226, 3-{3-t-butyl-5-[3-(2,3-dichlorophenyl)ureido]-1H-pyrazol-1-yl}benzoic acid]: the IC50 is 20 nM. `CC(C)(C)c1cc(NC(=O)NC2CCCCC2)n(-c2cc(CO)c3ccccc3c2)n1` [Example 292, 1-(3-t-butyl-1-(4-(hydroxymethyl)naphthalen-2-yl)-1H-pyrazol-5-yl)-3-cyclohexylurea] showed an IC50 of 22 nM. In turn, `CC(C)(C)c1cc(NC(=O)Nc2cccc(Cl)c2Cl)n(-c2cc(CCO)c3ccccc3c2)n1` [Example 303, 1-{5-t-butyl-2-[4-(2-hydroxyethyl)naphthalen-2-yl]-2H-pyrazol-3-yl}-3-(2,3-dichlorophenyl)urea] returned an IC50 of 4.3 nM. As to `CC(C)(C)c1cc(NC(=O)NC2CCCCC2)n(-c2ccc3c(c2)C(=O)NCC3)n1` [Example 310, 1-(3-t-butyl-1-(1-oxo-1,2,3,4-tetrahydroiso-quinolin-7-yl)-1H-pyrazol-5-yl)-3-cyclohexylurea], the IC50 is 98 nM.

`CC(=O)OCc1cccc(-n2nc(C(C)(C)C)cc2NC(=O)Nc2cccc(Cl)c2Cl)c1` [Example 245, 3-(3-t-butyl-5-(3-(2,3-dichlorophenyl)ureido)-1H-pyrazol-1-yl)benzyl acetate] came in with an IC50 of 5.3 nM.

`CC(C)(C)c1cc(NC(=O)Nc2ccccc2Cl)n(-c2ccc3c(c2)C(=O)NCC3)n1` [Example 313, 1-(3-t-butyl-1-(1-oxo-1,2,3,4-tetrahydroiso-quinolin-7-yl)-1H-pyrazol-5-yl)-3-(2-chlorophenyl)urea] had an IC50 of 46 nM. Compound `CC(C)(C)c1cc(NC(=O)Nc2cccc(F)c2F)n(-c2ccc3c(c2)CCN(S(C)(=O)=O)C3)n1` [Example 328, 1-(3-t-butyl-1-(2-(methylsulfonyl)-1,2,3,4-tetrahydroisoquinolin-6-yl)-1H-pyrazol-5-yl)-3-(2,3-difluorophenyl)urea] showed an IC50 of 25 nM. The same measure, in the same setting: next, `CNCCc1cccc(-n2nc(C(C)(C)C)cc2NC(=O)Nc2cccc(Cl)c2Cl)c1` [Example 258, 1-(3-t-butyl-1-(3-(2-(methylamino)ethyl)phenyl)-1H-pyrazol-5-yl)-3-(2,3-dichlorophenyl)urea]: 3.4 nM. On the same count and under the same terms, next, `CC(C)(C)c1cc(NC(=O)Nc2cc(F)cc(F)c2F)n(-c2ccc3[nH]c(=O)ccc3c2)n1` [Example 331]: 3.4 nM.

The assay is the same for the next values; noted with them: Method B1; read-out: B-Raf Data.
On to `CC(C)(C)c1cc(NC(=O)Nc2cc(F)c(F)cc2F)n(-c2cccc(CC(N)=O)c2)n1` [Example 434, 1-(1-(3-(2-amino-2-oxoethyl)phenyl)-3-t-butyl-1H-pyrazol-5-yl)-3-(2,4,5-trifluorophenyl)urea], for which the IC50 was found to be 6.7 nM. Turning to `CC(C)(C)c1cc(NC(=O)Nc2cccc(-c3cnccn3)c2)n(-c2cccc(CC(N)=O)c2)n1` [Example 437, 1-(1-(3-(2-amino-2-oxoethyl)phenyl)-3-t-butyl-1H-pyrazol-5-yl)-3-(3-(pyrazin-2-yl)phenyl)urea], the IC50 was 279 nM.
